According to PMC11040934, “PI3Kγδ inhibition suppresses key disease features in a rat model of asthma” (Respiratory Research, 2024):
Read-outs that look alike come from different tables or passages of the source.

Molecular target: T1, rat PI3Kδ (Rattus norvegicus, UniProt A0A8I5Y949)
T1 sequence (A0A8I5Y949 1-1047): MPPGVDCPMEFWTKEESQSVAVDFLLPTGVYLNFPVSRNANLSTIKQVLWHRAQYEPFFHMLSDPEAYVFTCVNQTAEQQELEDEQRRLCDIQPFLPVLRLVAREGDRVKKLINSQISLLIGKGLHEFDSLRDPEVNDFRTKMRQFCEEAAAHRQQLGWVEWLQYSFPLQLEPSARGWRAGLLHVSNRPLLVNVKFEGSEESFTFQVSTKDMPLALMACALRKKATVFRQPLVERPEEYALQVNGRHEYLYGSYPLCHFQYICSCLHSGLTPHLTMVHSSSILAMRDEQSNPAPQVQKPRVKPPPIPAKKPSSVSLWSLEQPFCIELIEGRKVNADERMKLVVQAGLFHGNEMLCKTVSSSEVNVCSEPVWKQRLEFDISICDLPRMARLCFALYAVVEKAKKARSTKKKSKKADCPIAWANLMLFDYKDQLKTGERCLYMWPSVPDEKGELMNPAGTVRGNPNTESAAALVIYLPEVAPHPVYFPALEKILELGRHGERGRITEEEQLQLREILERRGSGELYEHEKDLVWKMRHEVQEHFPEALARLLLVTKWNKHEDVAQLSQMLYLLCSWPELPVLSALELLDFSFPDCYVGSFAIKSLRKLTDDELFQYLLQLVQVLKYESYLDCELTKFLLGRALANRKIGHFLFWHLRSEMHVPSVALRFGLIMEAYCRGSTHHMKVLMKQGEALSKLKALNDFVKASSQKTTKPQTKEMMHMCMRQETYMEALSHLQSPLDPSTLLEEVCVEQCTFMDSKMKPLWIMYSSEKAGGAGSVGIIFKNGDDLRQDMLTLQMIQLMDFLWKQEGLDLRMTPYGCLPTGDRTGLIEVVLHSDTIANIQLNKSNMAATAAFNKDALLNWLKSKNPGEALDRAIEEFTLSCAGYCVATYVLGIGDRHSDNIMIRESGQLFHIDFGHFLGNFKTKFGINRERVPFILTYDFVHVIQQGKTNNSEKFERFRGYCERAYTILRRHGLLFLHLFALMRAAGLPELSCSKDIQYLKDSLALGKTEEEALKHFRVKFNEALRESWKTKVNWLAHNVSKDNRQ
Test: PI3K δ assay: anti-IgM-stimulated CD86 expression on rat splenic B cells (FACS)
Assay type: cell-based
Details: mean ± SEM, n = 3
Protocol: PI3K δ assay: single cell suspension was obtained from the spleen of male Sprague Dawley rat; cells were cultured in RPMI containing heat-inactivated 10% FBS, pre-treated (1 hr., 37 °C, 5% CO2) with vehicle DMSO or PI3K inhibitors, followed by stimulation with AffiniPure F(ab’)2 Fragment Goat Anti-Rat IgM, μ chain specific, Jackson Immunoresearch (112–006-075) at 5 μg/mL (EC80 determined in house; 20–22 hrs). Then, cells were washed with FACS buffer (2% FBS, […]) and stained (15 mins, 4 °C) with Fc block (1:100, 550,273, BD bioscience), LIVE/DEAD Fixable Aqua Dead Cell Stain Kit (L34957, Invitrogen, 1:300), CD45R (B220)-PeCy7 (HIS24) (25–0460-82, eBioscience, 1:100), CD3-AF647 (IF4) (201,408, Biolegend, 1:100), CD86-FITC (24F) (200,305, Biolegend, 1:50). Cells were acquired on the Flow Cytometer (BD LSRFortessa™) and analysed using FlowJo 9.9 software (TreeStar). FACS gating strategy: lymphocytes (FSC-A vs SSC-A), doublets exclusion (FSC-W vs FSC-H), live cells (Aqua-530-), B cell identification CD3- B220 + % of positive B cells for CD86. IC50 values were determined in Graph Pad through a nonlinear fit on log transform data: log inhibitor vs response, variable slope, 4 parameters. Fraction unbound in in vitro assay is calculated using the following equation: fu^′=DF·fup/1+DF-1·fup where fu’ is the fraction unbound in assay media; fup is the experimentally determined fraction unbound in undiluted human plasma; DF is the dilution factor (fold difference between protein concentration in human plasma and assay media, using an albumin concentration of 600 μM (40 g/L) for undiluted plasma) Table 2.

With `Cc1nc(Nc2cccc(N3CCCC3=O)n2)sc1-c1cc2c(c(S(C)(=O)=O)c1)C(=O)N([C@@H](C)C1CC1)C2` [AZD8154] the IC50 (CD86 expression on B cells, read-out: rat δ total IC50) was 10.5 ± 6.2 nM and the IC50 (corrected for protein binding in the assay, read-out: rat δ free IC50) was 0.63 ± 0.37 nM.
